From patent publication US20130225669A1 (priority 2012, published 2013)
Where “and” joins values, the source holds several entries; their conditions need not be identical. Equal values may be shown once. Entries after “also recorded” stand apart in the source; their conditions may differ. Read-outs that look alike come from different tables or passages of the source.

Experiments:
[1] = test system: Bacillus subtilis var. niger spores; type: cell-based; conditions: for spore strips sterilized: room temperature (Example 6)
Method: The sterilization potential of genipin was measured by treating B. subtilis mini spore strips with 1.2×10^6 bacterial spores (ATCC 9372, North American Science Associates, Inc., Northwood, Ohio) with 0.5 mL of sterile 1:1 dimethyl sulfoxide (Avantor Performance Materials, Inc., Center Valley, Pa.): phosphate-buffered saline (Fisher Scientific, Pittsburgh, Pa.) (DMSO: PBS, v/v); 2%, 6%, and 10% genipin in 1:1 DMSO:PBS; and 10% formalin (Fisher Scientific, Pittsburgh, Pa.) (N=4 per group). Genipin treatments corresponded to 8.3 mg, 25 mg, and 42 mg genipin per 10^6 spores for the 2%, 6%, and 10% groups, respectively. Treatment was conducted at room temperature, 20-25° C., for 24 hours and 72 hours. Spore strips were subsequently washed with sterile water and aseptically transferred to Releasat® rapid-readout color changing vials (SGM Biotech, Bozeman, Mont.) which have soybean-casein digest medium with the pH indicator phenol red, designed to change color from orange to yellow in the presence of spore germination and proliferation. Spores were incubated for one week at 37° C.
B. subtilis mini spores strips with 1.2×10^6 spores were treated with 0.5 mL of sterile PBS and 1:1 DMSO:PBS without genipin; 0.03%, 0.32%, and 0.63% genipin in 1:1 DMSO: PBS; 0.63% genipin in PBS; and 10% formalin for 72 hours at room temperature (N=4 per group). Genipin treatments corresponded to 0.13 mg, 1.3 mg, and 2.6 mg genipin per 10^6 spores for the 0.03%, 0.32%, and 0.63% groups, respectively. Spore strips were subsequently washed with sterile water, aseptically transferred to Releasat® vials, and incubated for one week at 37° C.
B. subtilis mini spores strips with 1.2×10^6 spores were treated with 0.5 mL of sterile 1:1 DMSO:PBS without genipin; 0.63%, 2%, 6%, and 10% genipin in 1:1 DMSO:PBS; and 10% formalin for 72 hours at room temperature (N=4 per group). Spore strips were subsequently washed with sterile water, aseptically transferred to Releasat® vials, and incubated for one week at 37° C.
A priori power analysis was performed with G*Power (G*Power 3.1.3, Kiel, Germany). To detect at least a one-log difference in population assays, comparing groups at an α=0.05 and power >0.999 required N=3 per group. One-tailed Mann-Whitney U tests were performed for comparing population assay groups. Chi squared tests and binomial exact confidence intervals were performed comparing spore viability against expected spore counts for dichotomous (sterile, non-sterile) growth in medium based on the manufacturer's certificate of analysis (COA), and the population assays (PA, for B. subtilis only), using Minitab 16 (Minitab, Inc., State College, Pa.). Statistical significance was set at p≦0.05.

[2] = test system: Bacillus subtilis var. niger spores; type: cell-based; conditions: for colonies at the 1-log reduction level: 72 hours, room temperature
Method: B. subtilis mini spores strips with 1.2×10^6 spores were treated with 0.5 mL of sterile PBS; 1:1 DMSO:PBS without genipin; 0.63%, 2%, 6%, and 10% genipin in 1:1 DMSO:PBS; and 10% formalin for 72 hours at room temperature (N=4 per group). Spore strips were then washed with sterile water and then aseptically macerated, serially diluted, and plated onto petri dishes with soybean-casein digest agar (Mo Bio Laboratories, Carlsbad, Calif.). Spores were incubated for 48 hours at 32.5° C. after which time colony counts were performed.

B. subtilis spores = test: Scanning electron microscopy of genipin-treated spores; type: cell-based; conditions: 10% and 0.63% genipin in 1:1 DMSO:PBS, 72 hours, room temperature
Method: The morphology of B. subtilis was evaluated using scanning electron microscopy. Spore strips were either untreated, treated with 0.5 mL of sterile 1:1 DMSO:PBS without genipin, or 0.5 mL of sterile 0.63% or 10% genipin in 1:1 DMSO:PBS for 72 hours at room temperature. After treatment, spore strips were washed with sterile water and dehydrated with increasing concentrations of ethanol (70%, 80%, 90%, and 100%) and subjected to critical point drying. The spore strips were mounted onto a stage, sputter coated with gold, and visualized under a scanning electron microscopy (Hitachi S-4500 Cold Field Emission SEM, Hitachi, Ltd., Tokyo, Japan).

B. pumilus spores = test: Spore strip sterilization, soybean-casein medium; type: cell-based; conditions: 72 hours
Method: (§1) Spore strips of B. pumilus (ATCC 27142) with 1.9×10^6 spores (SGM Biotech, Bozeman, Mont.) and G. stearothermophilus (ATCC 7953) with 1.9×10^6 spores (SGM Biotech, Bozeman, Mont.) were treated with doses of genipin equivalent to those that sterilized of B. subtilis. B. pumilus conventional spore strips were treated with 1.75 mL of solution and G stearothermophilus mini spore strips were treated with 0.5 mL of solution. Spore strips were treated with 1:1 DMSO:PBS; 2.6 mg, 8.3 mg, 25 mg, and […] genipin per 10^6 spores in 1:1 DMSO:PBS; and 10% formalin (N=4). After treatment for 72 hours spore strips were washed and transferred to soybean-casein medium (Becton Dickinson, Franklin Lanes, N.J.). B. pumilus was incubated at 32.5° C. and G stearothermophilus was incubated at 57.5° C.

[3] = test system: Geobacillus stearothermophilus spores; test: Spore strip sterilization, soybean-casein medium; type: cell-based
Method: as §1

[4] = test system: Bacillus subtilis var. niger spores; type: cell-based
3T3 fibroblasts = conditions: in vitro; cited from earlier work
[5] = test system: Chinese hamster ovary (CHO-K1) cells; conditions: in vitro; cited from earlier work
[6] = cited from earlier work
cells in culture = conditions: 2200 μMolar sterile genipin; cited from earlier work
fibroblasts [7] = conditions: cited from earlier work
[8] = test system: bovine nucleus pulposus cells; conditions: cells entrapped in chitosan gels crosslinked with 5% genipin; cited from earlier work
fibroblasts [9] = conditions: cells directly exposed to genipin solution; cited from earlier work
osteoblasts = conditions: cells directly exposed to genipin solution; cited from earlier work
[10] = cited from earlier work; remark: listed apart in the source
[11] = test system: over 40 bacterial (non-spore forms) and fungal species; conditions: most 20-40%; cited from earlier work
[12] = 0.03% genipin in 1:1 DMSO:PBS, 72 hours, room temperature
[13] = 0.32% genipin in 1:1 DMSO:PBS, 72 hours, room temperature

COC(=O)C1=CO[C@@H](O)C2C(CO)=CC[C@H]12 (stereo in doubt) [genipin, methyl (1R,2R,6S)-2-hydroxy-9-(hydroxymethyl)-3-oxabicyclo [4.3.0]nona-4,8-diene-5-carboxylate]
log reduction in spore viability [1, 12]: 5- to 6 log and > 5 log | spore strips sterile [1, 12]: two of four | log reduction in spore viability [1, 13]: 5- to 6 log and > 5 log | spore strips sterile [1, 13]: one of four | spore strips sterile ([1]; 0.63% genipin in 1:1 DMSO:PBS, 72 hours, room temperature (Example 7)): Three of four | spore strip viability/sterility ([1]; 0.63% genipin in PBS, 72 hours, room temperature): demonstrated viability | log reduction in spore viability ([1]; 0.63% genipin, all doses of DMSO (0-50%), 37° C.): ≥ 6 log | spore strip viability/sterility ([1]; 0.63%, 2%, 6%, 10% genipin in 1:1 DMSO:PBS, 72 hours, room temperature (confirmation, Example 8)): sterilized the spore strips | log reduction in spore viability ([1]; 0.63%-10% genipin in 1:1 DMSO:PBS, 72 hours, room temperature (confirmatory experiment)): at least 6 log | genipin dose necessary for eradication of B. subtilis ([1]; 1:1 DMSO:PBS, 72 hours, room temperature): at least 2.6 mg/10^6 spores | spore strips sterilized ([1]; 2% genipin in 1:1 DMSO:PBS, 72 hours): 3 of 4 | spore strip viability/sterility ([1]; 2%-10% genipin in 1:1 DMSO:PBS, 24 hours, room temperature): demonstrated bacterial viability; also recorded: unable to sterilize any spore strips; also recorded: yellow (growth) | spore strips sterilized ([1]; 6% genipin in 1:1 DMSO:PBS, 72 hours): 3 of 4 | spore strips sterilized ([1]; 10% genipin in 1:1 DMSO:PBS, 72 hours): all | colonies at the 1-log reduction level ([2]; 0.63% genipin in 1:1 DMSO:PBS): no colonies | log reduction in B. subtilis viability ([2]; 0.63% genipin in PBS, one week treatment (unpublished pilot data)): 2 log | colonies at the 1-log reduction level ([2]; 2% genipin in 1:1 DMSO:PBS): no colonies | colonies at the 1-log reduction level ([2]; 6% genipin in 1:1 DMSO:PBS): no colonies | colonies at the 1-log reduction level ([2]; 10% genipin in 1:1 DMSO:PBS): three 10% genipin-treated spore strips yielded no colonies | spore morphology versus untreated spore strips (B. subtilis spores): no appreciable morphological differences | log reduction in spore viability (B. pumilus spores; 2.6 mg-42 mg genipin/10^6 spores in 1:1 DMSO:PBS, room temperature): at least 6 log | spore strips sterilized (B. pumilus spores; all genipin doses (2.6-42 mg per 10^6 spores) in 1:1 DMSO:PBS): 4/4 | spore strips sterilized ([3]; 2.6 mg genipin/10^6 spores in 1:1 DMSO:PBS, 72 hours): Three of 4 | log reduction in spore viability ([3]; 2.6 mg-42 mg genipin/10^6 spores in 1:1 DMSO:PBS, 72 hours, room temperature): at least 6 log | spore strips sterilized ([3]; 8.3 mg genipin/10^6 spores in 1:1 DMSO:PBS, 72 hours): 4/4 | spore strips sterilized ([3]; 25 mg genipin/10^6 spores in 1:1 DMSO:PBS, 72 hours): Three of 4 | spore strips sterilized ([3]; 42 mg genipin/10^6 spores in 1:1 DMSO:PBS, 72 hours): 4/4 | sterile vials ([4]; 0.63% genipin in 50% DMSO/50% PBS, room temperature (Example 12)): 2/5 | log reduction in spore viability ([4]; 0.63% genipin in PBS, 37° C.): ≥ 6 log | sterile vials ([4]; 0.63% genipin, all doses of DMSO (0-50%) in PBS, 37° C.): 5/5 | cytotoxicity compared with glutaraldehyde (3T3 fibroblasts): substantially less cytotoxic than glutaraldehyde | clastogenic response [5]: does not cause clastogenic response | relative solubility in solvents ([6]; organic solvents versus PBS): more soluble in ethanol than in PBS; also recorded: substantially more soluble in organic solvents | solubility in PBS ([6]; phosphate-buffered saline): approximately 1% | cell death (cells in culture): complete cell death | fibroblast proliferation on treated tissue (fibroblasts [7]; bovine pericardia treated with 0.625% genipin in PBS, within three days): substantial fibroblast proliferation | cell viability [8]: up to 87% | concentration sufficient for cytotoxicity (fibroblasts [9]): 80-100 ppm | concentration sufficient for cytotoxicity (osteoblasts): 80-100 ppm

C[S+](C)[O-] [DMSO, dimethyl sulfoxide]
toxicity rate ([10]; DMSO washed off or less than 10% DMSO): 0.3% | toxicity incidence ([10]; stem cells cryopreserved with 10% DMSO, review of 34,000 transplants): 1.5% | microbicidal concentration [11]: 8 to 40%

C=O [formalin, reference compound]
spore strip viability/sterility ([1]; 10% formalin, 24 hours, room temperature): orange (sterile) | colonies at the 1-log reduction level ([2]; 10% formalin): no colonies | spore strip viability/sterility ([3]; 10% formalin, 72 hours): presence of spore viability | spore strips from which G. stearothermophilus grew ([3]; 10% formalin, 72 hours): 100% | time required to demonstrate viability ([3]; 10% formalin, 72 hours treatment): 2.25 ± 0.50 days | spore strip viability/sterility ([3]; 10% formalin, 72 hours, listed as 10% formalin): demonstrated viability

O=CCCCC=O [glutaraldehyde, reference compound]
fibroblast proliferation on treated tissue (fibroblasts [7]; 0.625% glutaraldehyde-treated pericardia, after seven days): no cellular proliferation
